Measured values taken from patent publication US20220054658A1, “CONJUGATES” (Transfection Holdings Limited, priority 2018, published 2022).
Entries after “also recorded” stand apart in the source; their conditions may differ.

Legend:
[1] = system: B. bovis Texas strain; assay: Short-term uptake test in B. bovis infected RBCs (confocal microscopy)
Protocol: The parasite culture was centrifuged and washed once with GIT medium. RBC's were pellet down, and 20 μl infected RBC mixture (10 μl packed infected RBC+10 μl GIT) was prepared. Then, 180 μl GIT medium with compound the compound to be evaluated (final concentration 25 μM for BODIPY derivatives and 100 μM for phiLOV derivatives) or DMSO (0.1%)/PBS control was added. The samples were incubated for 45 min at 37° C. (Samples were stained 1 μg/mL diluted Hoechst 33342 in GIT medium). After incubation, the samples were centrifuged and the pellet was washed with GIT medium (3×). A final solution of 50% haematocrit infected RBC mixture was transferred to slides to be observed by confocal laser microscopy (Nikon A1).
Uptake experiments were performed by incubating the parasite (˜5% Parasitized Erythrocytes (PPE)) with each derivative at 25 μM and 37° C. for 45 min. After incubation, the fluorescence intensities were calculated from confocal microscope images.
The phiLOV double mutant (R475G, K476C) was used to generate derivatives P11, P1, P8, and P3 which were tested for uptake in B. bovis Texas strain using phiLOV as a control. The derivatives and the control were incubated at 100 μM and 37° C. for 45 min. After incubation, the samples were analysed under confocal microscopy using Hoeschst 33342 (Thermofisher) as co-stain.

[2] = system: T. annulata; assay: Theileria annulata testing: uptake; assay type: cell-based; conditions: 1 hour, 37° C.
Protocol: T. annulata were cultured using RPMI 1640 with 10% Albumax II (Thermo-Fisher) serum. A standard hemocytometer was used to calculate the concentration of cells in the parent culture. […] For each compound and concentration to be tested, 2 mL of the culture were centrifuged at 1,000 rpm for 5 minutes. The medium was removed before the cells were resuspended in 950 μL of complete medium containing the compound to be tested at the desired concentration. This was prepared from a 100 mM stock solution of compound in DMSO. Once the cells were resuspended they were transferred to a 5 well plate (1 mL capacity per well). They were then incubated for 1 hour at 37° C. in an atmosphere of 5% CO2 in air. After the incubations were complete the contents of each well were transferred to a 10 mL centrifuge tube. Cold RPMI 1640 (Thermofisher) or HBSS added to obtain a volume of 5 mL. The suspension was then centrifuged at 1,000 rpm and at 4° C. for 5 minutes. […] After the final washing the pellet of cells was resuspended in a minimum amount of RPMI 1640 and then spotted onto a glass slide. The slide was then covered with a cover slip and analysed using Olympus BX60 UV microscope system with a Spot RT3 camera and Spot Image software with a FITC fluorescent filter.

[3] = system: Theileria parva; assay: Uptake in erythrocyte infected with Theileria parva (FIG. 2(b)); assay type: cell-based
[4] = system: Staphylococcus aureus; assay: Bacteria testing: uptake in Staphylococcus aureus; conditions: FIG. 2(g); 25 μM, 45 minutes, 37° C.
Protocol: (§1) Bacteria cultured by inoculating LB media (Thermo-Fisher) with the desired bacteria and incubating overnight at 37° C. under an atmosphere of air. The OD600 was then measured and the concentration of bacteria calculated from this. The cultures were then diluted appropriately to give a concentration of 2×10^5 cells per mL. 1 mL of this culture was placed in a 5 mL centrifuge tube then centrifuged at 13,000 rpm for 5 minutes. The supernatant was removed and replaced with 1 mL of 25 μM solution of compound in media. The cultures were incubated for 45 minutes at 37° C. The cultures were centrifuged as before, the supernatant removed and the pellet resuspended in 1 mL of PBS. The cells were washed in this manner twice more. After the final washing the pellet was resuspended in 35 μL of water and spotted onto a slide. The slide was then protected with a coverslide before the images were analysed using an Olympus UV microscope system with a Leica imaging analysis software with a FITC fluorescent filter.

[5] = system: T. brucei; assay: Trypanosoma brucei testing: uptake; assay type: cell-based; conditions: 10-25 μM, 45 minutes, 37° C.
[6] = system: Escherichia coli; assay: Bacteria testing: uptake in Escherichia coli; conditions: FIG. 2(e); 25 μM, 45 minutes, 37° C.
Protocol: as §1

[7] = system: L. passim strain PRA-403; assay: Lotmaria passim parasite uptake test; assay type: cell-based; conditions: 1 μM and 100 μM, room temperature, 45 min
Protocol: 100 mM stock solutions of BODIPY derivatives were prepared with dimethylsulfoxide (DMSO). L passim strain PRA-403 (ATCC) was cultured in modified medium for C. bombi (Tognazzo et al.). The parasite culture was centrifuged, supernatant was removed and 500 μL of L passim medium with compound (final concentration 500, 100, 10 or 1 μM for BODIPY derivatives) or DMSO (0.1%) control was added. Incubated for 45 min at room temperature.
Uptake tests were performed at 1 μM and 100 μM final concentration of CJ-BODIPY derivatives. After incubation at room temperature for 45 min, fluorescence intensities were evaluated using a microplate reader.

[8] = system: C. elegans; assay: Conjugate uptake in C. elegans (dye and praziquantel conjugates, fluorescence microscopy); assay type: in vivo, Caenorhabditis elegans; conditions: for uptake: location of fluorescence in C. elegans / uptake compared to other compounds: 50 μM
Protocol: Nematode Growth Media (NGM) plates containing C. elegans were washed with 1.0-1.5 mL of standard M9 buffer and the washes were collected in an Eppendorf tube. The liquid containing the C. elegans was then spun for 1 min at room temperature at 10,000 rpm. The supernatant was removed, and fresh M9 buffer was added (500 μL) to generate a new stock solution of M9 buffer containing the C. elegans.
A C. elegans suspension (100 μL) was added a defined amount of M9 buffer (determined by the final desired concentration of compound to be tested: 399 μL in the case of the BODIPY tagged derivatives) contained within a separate Eppendorf tube. To this was then added a 25 mM solution of the compound in DMSO (1 μL). The resulting suspension was mixed using a vortex instrument.
The resulting mixture was incubated at room temperature for 2 to 4 h. in the dark (using aluminium foil to screen the tube, which was also stored in a cabinet).
Other samples were incubated overnight. Here, OP50 bacteria (3 μL) were added to the worms for feeding purposes, and the worms were kept in the dark at 20° C.
After the incubation, the tube contents were mixed gently by hand (typically by simple rotation of the tube), so as to achieve a homogenous suspension. A sample of the suspension (250 μL) was taken and mixed with M9 buffer (500 μL). The resulting suspension was placed in a centrifuge and spun at room temperature at 10,000 rpm for 1 min. The supernatant was removed, and the washing process was repeated twice more, each time using further quantities of fresh M9 buffer (500 μL each time). After the final washing sufficient supernatant was removed so as to leave a final sample volume of approximate 30 μL.
A 1.5% agarose solution in water was pre-warmed for 60 to 90 s. in a standard household style microwave (set to Power 4). Two drops of this solution was removed and placed on a glass slide. The glass slide was covered with a second glass slide. After 1 min., the slides were slid carefully apart, with the agarose remaining on one of the slides. Onto this slide was placed an aliquot of the final C. elegans solution (15 to 20 μL). To this was added a 20 mM sodium azide solution (5 μL) to inhibit nematode mobility. Vaseline was then placed around the agarose area before replacing the second slide. The slides were not pressed together.
The nematodes were then analysed using a Zeiss Axiskop 2 Plus microscope with a Hamamatsu Orca-ER (CA 742-95) camera. The images were resolved using OpenLab on a Mac operating system.
Compounds 1-11 were evaluated after 3 h and overnight incubation at a 50 μM concentration using the general uptake protocol described for C. elegans.
In order to compare the ability of a conjugate to improve the uptake of the drug praziquantel, two praziquantel derivatives were generated. Praziquantel was tagged with a BODIPY fluorescent tag (compound 12) and incorporated into a conjugate of the invention (compound 13). Compounds 12 and 13 were evaluated at a concentration of 50 μM using the C. elegans uptake protocol described above for compounds 1-11. Microscopic readings were taken after 3, 24 and 72 h.

[9] = system: P. falciparum; assay: Plasmodium falciparum testing: uptake by infected and non-infected red blood cells; assay type: cell-based; conditions: 25 μM, 45 minutes, 37° C., synchronised stage and mix-stage cultures
Protocol: Compounds 1, 5, 9, 10 and 11 were tested for uptake in both synchronised stage and mix-stage cultures at 25 μM concentrations.

[10] = system: Gram-negative and Gram-positive bacteria; assay: Bacteria testing: uptake in bacterial cultures; assay type: cell-based; conditions: 25 μM, 45 minutes, 37° C.
[11] = system: Enterococcus faecalis; assay: Bacteria testing: uptake in Enterococcus faecalis; conditions: FIG. 2(f); 25 μM, 45 minutes, 37° C.
Protocol: as §1

[12] = system: human embryonic kidney cells (HEK293); assay: Cytotoxicity against HEK293 cells (CellTitre-Glo); assay type: cell-based; conditions: 100 μM, HEK293, 24 hours
Protocol: A sample compound was incubated at 100 μM with human embryonic kidney cells (HEK293) in Greiner 384 cell star plates for 24 hours before adding CellTitre-Glo® (Promega), an indicator of cell viability giving a luminescent output. In this assay, compounds showing greater than 40% cytotoxicity over two test runs at 100 μM are deemed to have shown cytotoxicity.

[13] = system: mixed culture of wild type nematodes (roundworms, tape worms and flukes); assay: Nematode testing: mixed culture of wild type nematodes; assay type: in vivo; conditions: 20 h incubation
Protocol: A mixed culture of wild type nematodes (roundworms, tape worms and flukes), obtained from Massey University's sheep farm, were incubated for 20 h with compound 14, compound and commercially available ivermectin B1a, as a control. The protocol followed is the same as the C. elegans protocol used previously.

CC1=CC(C)=[N+]2C1=Cc1ccc(CCCn3cc(CCNC(=O)/C=C/NC(=O)[C@H](O)C(C)(C)CO)nn3)n1[B-]2(F)F [Compound 5, (R,E)-N-((((3-[4,4-Difluoro-5,7-dimethyl-4-bora-3a,4a-diaza-s-indacene-3-yl]propyl)-1H-1,2,3-triazol-4-yl)ethylamino)-3-oxoprop-1-enyl)-2,4-dihydroxy-3,3-dimethylbutanamide]
uptake compared to compound 1 (% less) ([1]; 25 μM, 37° C., 45 min, ~5% PPE): 30% | uptake by non-infected erythrocytes (B. bovis culture) ([1]; FIG. 2(a)): Non-infected erythrocytes do not take up the conjugate | uptake in T. annulata [2]: taken up by T. annulata; also recorded: selectively accumulated within the intracellular parasite | accumulation in Theileria parva infected erythrocyte [3]: seen to accumulate within the parasite | uptake by Staphylococcus aureus [4]: uptake of the conjugate by the organism | uptake in T. brucei [5]: taken up by T. brucei and forms small vesicles all over the trypanosome body, whilst not accumulating neither in the lysosome nor in the nucleus, but rather in a vesicle between the flagellar pocket and the lysosome; also recorded: taken up by T. brucei and forms small vesicles all over the trypanosome body | uptake by Escherichia coli [6]: uptake of the conjugate by the organism | uptake in L. passim (fluorescence intensity, microplate reader) [7]: relatively low uptake | uptake: location of fluorescence in C. elegans ([8]; 3 h incubation): small amounts of compound 5 were present in the gut cells, and the gut lumen of the larval stages, as well as in the pharynx, gut lumen and gut cells of adult nematodes; also recorded: not detected in the embryos | uptake: location of fluorescence in C. elegans ([8]; 20 h / overnight incubation): fluorescence remained in the pharynx, gut cells and gut lumen of both the larval and adult stages; also recorded: Fluorescence was also detected in the early stage of egg development, but not in the embryos | distribution in C. elegans ([8]; FIG. 2(h), fluorescence microscopy): localised with the digestive track of C. elegans | uptake by infected and non-infected red blood cells [9]: selectively taken up by infected red blood cells; also recorded: accumulated within the parasite itself; also recorded: Non-infected erythrocytes do not take up the conjugate | uptake in bacterial cultures [10]: Uptake was seen both in the case of Gram-negative and Gram-positive bacteria | uptake by Enterococcus faecalis [11]: uptake of the conjugate by the organism

CC1(C)OCC(C)(C)C(C(=O)N/C=C/C(=O)NCCCCCO[Si](c2ccccc2)(c2ccccc2)C(C)(C)C)O1 (stereo not shown)
outcome in the cytotoxicity screen [12]: inactive in the screen | cytotoxicity ([12]; CellTitre-Glo, greater than 40% deemed cytotoxic): 3.7±0.6%

CC1=CC(C)=[N+]2C1=Cc1ccc(CCCn3cc(CCNC(=O)CCNC(=O)[C@H](O)C(C)(C)CO)nn3)n1[B-]2(F)F [Compound 9, (R)—N-((((3-[4,4-Difluoro-5,7-dimethyl-4-bora-3a,4a-diaza-s-indacene-3-yl]propyl)-1H-1,2,3-triazol-4-yl)ethylamino)-3-oxopropyl)-2,4-dihydroxy-3,3-dimethylbutanamide]
uptake in T. annulata [2]: taken up by T. annulata; also recorded: taken up more rapidly and fluorescence can be detected at lower concentrations albeit it is also present in the infected lymphocyte | uptake in T. brucei [5]: taken up much more rapidly and in much higher concentrations than compound 5; also recorded: spread throughout the cell | uptake compared to other compounds ([8]; 3 h incubation): the amount of fluorescence was lower than the enamide derivatives, compounds 1 to 8 | uptake: location of fluorescence in C. elegans ([8]; 3 h incubation): traces of compound 9 were visible in the get cells and to a lesser extent 30 in the pharynx of both the larvae and the adult nematodes | uptake: location of fluorescence in C. elegans ([8]; 20 h / overnight incubation): small amounts of fluorescence could be detected in the gut cells of both larval and adult stages | uptake compared to other compounds ([8]; 20 h incubation): the amount of fluorescence was lower than the enamide derivatives, compounds 1 to 8 | uptake by infected and non-infected red blood cells [9]: taken up very quickly by both infected and non-infected erythrocytes, with very little difference in uptake between the two sets of red blood cells

4″-O—[(R,Z)-3-(2,2,5,5-Tetramethyl-1,3-dioxane-4-carboxamido)acrylate]avermectin B1a [Compound 14]
activity against nematodes relative to ivermectin B1a [13]: enhanced activity against nematodes relative to commercially available ivermectin B1a | concentration at which nematodes showed paralysis [13]: 5 µM
